Laboratory results taken from US20230002372A1, “AZAINDOLE CARBOXAMIDE COMPOUNDS FOR THE TREATMENT OF MYCOBACTERIAL INFECTIONS” (THE GLOBAL ALLIANCE FOR TB DRUG DEVELOPMENT, INC., priority 2019, published 2023).
≈ marks a conversion by molar mass, not a printed value.

Test system: M tb H37Rv
Assay: MIC determination against M tb H37Rv (green fluorescent protein reporter assay; MIC-MABA)
Format: cell-based, Mycobacterium tuberculosis
Conditions: Mycobacterium tuberculosis, H37RV, 240 h, read-out: M. TB H37Rv: MIC-MABA: MIC, M. tb H37Rv; 7H9 broth; 10 days exposure; MIC = lowest concentration inhibiting fluorescence by 90%

O=C(NC1CC2CCC(C2)C1)c1cc2c(F)ccnc2[nH]1 (centres unmarked) [MPL-157, N-(3-bicyclo[3.2.1]octanyl)-4-fluoro-1H-pyrrolo[2,3-b]pyridine-2-carboxamide]
MIC: 2.6 µg/mL (≈ 9.05 µM)

CC1(C)C=CC(NC(=O)c2cc3c(F)ccnc3[nH]2)CC1 (centres unmarked) [MPL-160, N-(4,4-dimethylcyclohex-2-en-1-yl)-4-fluoro-1H-pyrrolo[2,3-b]pyridine-2-carboxamide]
MIC: 0.77 µg/mL (≈ 2.68 µM)

O=C(NC1CCC2(CC1)CC2)c1cc2c(Cl)cncc2[nH]1 [MPL-163, 4-chloro-N-spiro[2.5]octan-6-yl-1H-pyrrolo[2,3-c]pyridine-2-carboxamide]
MIC: 0.64 µg/mL (≈ 2.11 µM)

O=C(NC1CCC2(CC1)CC2(F)F)c1cc2c(Cl)cncc2[nH]1 (centres unmarked) [MPL-164, 4-chloro-N-(1,1-difluorospiro[2.5]octan-6-yl)-1H-pyrrolo[2,3-c]pyridine-2-carboxamide]
MIC: 0.35 µg/mL (≈ 1.03 µM)

O=C(NC1CC2CCC(C2)C1)c1cc2c(Cl)cncc2[nH]1 (centres unmarked) [MPL-166, N-(3-bicyclo[3.2.1]octanyl)-4-chloro-1H-pyrrolo[2,3-c]pyridine-2-carboxamide]
MIC: 0.39 µg/mL (≈ 1.28 µM)

O=C(NC12CCC(CC1)CC2)c1cc2c(Cl)cncc2[nH]1 [MPL-170, N-(4-bicyclo[2.2.2]octanyl)-4-chloro-1H-pyrrolo[2,3-c]pyridine-2-carboxamide]
MIC: 0.1 µg/mL (≈ 0.329 µM)

Cc1c(C(=O)N[C@H]2C[C@H]3C[C@@H]([C@@H]2C)C3(C)C)[nH]c2nccc(F)c12 [MPL-174, 4-fluoro-3-methyl-N-[(1S,2S,3S,5R)-2,6,6-trimethylnorpinan-3-yl]-1H-pyrrolo[2,3-b]pyridine-2-carboxamide]
MIC: 0.19 µg/mL (≈ 0.577 µM)

CC1(C)C2CCC1(C)C(NC(=O)c1cc3c(Cl)cncc3[nH]1)C2 (centres unmarked) [MPL-189, 4-chloro-N-(1,7,7-trimethylnorbornan-2-yl)-1H-pyrrolo[2,3-c]pyridine-2-carboxamide]
MIC: 0.095 µg/mL (≈ 0.286 µM)

CC1(C)C2CCC1(C)C(NC(=O)c1cc3c(C(F)(F)F)cncc3[nH]1)C2 (centres unmarked) [MPL-190, 4-(trifluoromethyl)-N-(1,7,7-trimethylnorbornan-2-yl)-1H-pyrrolo[2,3-c]pyridine-2-carboxamide]
MIC: 0.24 µg/mL (≈ 0.657 µM)

C[Si]1(C)CCC(NC(=O)c2cc3c(F)cncc3[nH]2)CC1 [MPL-191, N-(1,1-dimethylsilinan-4-yl)-4-fluoro-1H-pyrrolo[2,3-c]pyridine-2-carboxamide]
MIC: 0.0087 µg/mL (≈ 0.0285 µM)

C[Si]1(C)CCC(NC(=O)c2cc3c(Cl)cncc3[nH]2)CC1 [MPL-192, 4-chloro-N-(1,1-dimethylsilinan-4-yl)-1H-pyrrolo[2,3-c]pyridine-2-carboxamide]
MIC: 0.0093 µg/mL (≈ 0.0289 µM)

COc1cc(F)cc2[nH]c(C(=O)NC3CC[Si](C)(C)CC3)cc12 [MPL-196, N-(1,1-dimethylsilinan-4-yl)-6-fluoro-4-methoxy-1H-indole-2-carboxamide]
MIC: 0.0048 µg/mL (≈ 0.0144 µM)

COc1cncc2[nH]c(C(=O)NC3CC[Si](C)(C)CC3)cc12 [MPL-202, N-(1,1-dimethylsilinan-4-yl)-4-methoxy-1H-pyrrolo[2,3-c]pyridine-2-carboxamide]
MIC: 0.11 µg/mL (≈ 0.346 µM)

Cc1cc(F)c2cc(C(=O)NC3CC[Si](C)(C)CC3)[nH]c2n1 [MPL-207, N-(1,1-dimethylsilinan-4-yl)-4-fluoro-6-methyl-1H-pyrrolo[2,3-b]pyridine-2-carboxamide]
MIC: 0.0045 µg/mL (≈ 0.0141 µM)

Cc1c(C(=O)NC2CC[Si](C)(C)CC2)[nH]c2nccc(F)c12 [MPL-210, N-(1,1-dimethylsilinan-4-yl)-4-fluoro-3-methyl-1H-pyrrolo[2,3-b]pyridine-2-carboxamide]
MIC: 0.058 µg/mL (≈ 0.182 µM)

CC1(C)[C@H]2C[C@H](NC(=O)c3cc4c(F)ccnc4[nH]3)[C@](C)(O)[C@@H]1C2 [MPL-213, 4-fluoro-N-[(1R,2R,3S,5R)-2-hydroxy-2,6,6-trimethyl-norpinan-3-yl]-1H-pyrrolo[2,3-b]pyridine-2-carboxamide]
MIC: 0.046 µg/mL (≈ 0.139 µM)

CC1(C)[C@H]2C[C@H](NC(=O)c3cc4c(C#N)ccnc4[nH]3)[C@](C)(O)[C@@H]1C2 [MPL-215, 4-cyano-N-[(1R,2R,3S,5R)-2-hydroxy-2,6,6-trimethyl-norpinan-3-yl]-1H-pyrrolo[2,3-b]pyridine-2-carboxamide]
MIC: 1.4 µg/mL (≈ 4.14 µM)
